From US20190125753A1, “COMPOUNDS AND METHODS FOR INCREASING HEMATOPOIESIS” (University of Southern California, priority 2016, published 2019)

Key:
cord blood cells = assay: Cord blood cell repopulation in NSG mice; type: in vivo, human; conditions: day 57 post BMT
Source text: FIG. 11A depicts the experimental procedure.

[1] = target: T1, interaction between β-catenin and p300 (Mus musculus, UniProt B2RWS6); assay: Co-immunoprecipitation (pull-down) in C2Cl2 myoblast cells; type: cell-based; conditions: C2Cl2 cells treated 24 hours
T1 construct: endogenous in cells; host or cells: mouse myoblast C2C12 cells
T1 sequence (B2RWS6 2-2412 limits assumed): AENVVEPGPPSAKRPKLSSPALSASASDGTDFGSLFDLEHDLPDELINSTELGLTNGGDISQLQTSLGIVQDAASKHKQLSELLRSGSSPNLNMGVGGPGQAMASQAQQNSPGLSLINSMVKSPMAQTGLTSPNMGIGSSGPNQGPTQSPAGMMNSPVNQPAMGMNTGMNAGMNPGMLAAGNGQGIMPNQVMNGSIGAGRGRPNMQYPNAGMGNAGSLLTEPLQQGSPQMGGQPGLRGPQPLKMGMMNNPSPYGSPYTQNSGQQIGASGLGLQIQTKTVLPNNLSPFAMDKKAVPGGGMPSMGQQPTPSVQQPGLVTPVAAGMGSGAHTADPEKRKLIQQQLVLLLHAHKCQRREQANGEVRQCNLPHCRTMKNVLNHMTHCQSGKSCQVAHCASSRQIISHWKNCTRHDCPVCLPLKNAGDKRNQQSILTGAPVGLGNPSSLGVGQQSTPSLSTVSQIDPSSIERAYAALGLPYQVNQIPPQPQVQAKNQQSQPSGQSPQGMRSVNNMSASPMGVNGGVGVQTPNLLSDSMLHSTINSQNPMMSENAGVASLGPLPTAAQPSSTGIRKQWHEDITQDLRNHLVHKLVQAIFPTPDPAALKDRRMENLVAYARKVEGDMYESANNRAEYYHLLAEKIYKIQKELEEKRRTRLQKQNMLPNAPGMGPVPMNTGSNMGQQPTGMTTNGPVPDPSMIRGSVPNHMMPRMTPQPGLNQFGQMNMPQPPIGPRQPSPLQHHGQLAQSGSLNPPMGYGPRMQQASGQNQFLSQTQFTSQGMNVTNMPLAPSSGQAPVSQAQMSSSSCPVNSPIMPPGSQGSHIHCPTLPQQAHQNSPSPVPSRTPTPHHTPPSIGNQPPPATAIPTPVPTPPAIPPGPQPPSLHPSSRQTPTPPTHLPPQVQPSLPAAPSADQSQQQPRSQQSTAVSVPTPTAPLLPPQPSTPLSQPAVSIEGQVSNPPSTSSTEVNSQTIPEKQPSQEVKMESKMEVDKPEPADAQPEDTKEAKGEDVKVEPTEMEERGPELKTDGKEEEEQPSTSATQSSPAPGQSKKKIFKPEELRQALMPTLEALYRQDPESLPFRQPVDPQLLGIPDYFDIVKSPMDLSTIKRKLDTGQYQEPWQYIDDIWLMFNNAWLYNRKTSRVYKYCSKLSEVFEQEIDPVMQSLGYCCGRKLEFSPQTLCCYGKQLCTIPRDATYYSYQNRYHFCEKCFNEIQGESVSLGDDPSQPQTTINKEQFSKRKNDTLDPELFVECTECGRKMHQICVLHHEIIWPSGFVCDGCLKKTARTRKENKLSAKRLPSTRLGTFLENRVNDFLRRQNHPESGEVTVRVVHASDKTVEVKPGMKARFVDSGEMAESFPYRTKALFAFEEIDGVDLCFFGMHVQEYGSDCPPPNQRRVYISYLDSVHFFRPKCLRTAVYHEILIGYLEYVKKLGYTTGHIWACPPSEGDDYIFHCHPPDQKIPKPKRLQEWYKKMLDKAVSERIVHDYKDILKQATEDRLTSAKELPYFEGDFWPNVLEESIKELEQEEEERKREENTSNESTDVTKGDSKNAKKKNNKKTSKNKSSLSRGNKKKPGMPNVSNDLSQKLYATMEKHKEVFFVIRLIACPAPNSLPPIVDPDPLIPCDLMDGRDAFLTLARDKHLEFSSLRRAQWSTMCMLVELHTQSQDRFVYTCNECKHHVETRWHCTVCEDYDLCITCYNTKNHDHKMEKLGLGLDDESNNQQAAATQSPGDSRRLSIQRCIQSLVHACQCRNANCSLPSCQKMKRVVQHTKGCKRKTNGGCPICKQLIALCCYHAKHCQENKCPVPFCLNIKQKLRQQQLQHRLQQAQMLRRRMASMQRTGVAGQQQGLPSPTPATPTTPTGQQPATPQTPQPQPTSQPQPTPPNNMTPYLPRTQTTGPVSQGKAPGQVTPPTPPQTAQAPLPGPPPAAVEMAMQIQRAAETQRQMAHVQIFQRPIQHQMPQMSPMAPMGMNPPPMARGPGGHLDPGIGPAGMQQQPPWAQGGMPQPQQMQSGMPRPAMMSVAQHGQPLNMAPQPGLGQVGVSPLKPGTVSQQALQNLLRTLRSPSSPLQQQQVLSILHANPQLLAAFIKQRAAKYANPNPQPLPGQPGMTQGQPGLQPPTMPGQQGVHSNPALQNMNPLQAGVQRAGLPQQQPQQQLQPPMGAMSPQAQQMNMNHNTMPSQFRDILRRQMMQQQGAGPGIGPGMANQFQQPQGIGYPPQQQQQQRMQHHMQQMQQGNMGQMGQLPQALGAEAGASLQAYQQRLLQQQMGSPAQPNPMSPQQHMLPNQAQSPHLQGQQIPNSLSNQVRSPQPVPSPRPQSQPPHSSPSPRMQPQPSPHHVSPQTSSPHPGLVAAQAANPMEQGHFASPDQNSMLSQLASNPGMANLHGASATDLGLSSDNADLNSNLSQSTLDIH
Procedure: YH249 and YH250 were selected from the compounds described herein for further testing. Co-immunoprecipitation (CO-IP) was performed with mouse myoblast C2Cl2 cells. Cells were treated with DMSO (control), or YH249, or YH250 for 24 hours. Cell lyses were pulled down with anti-p300 or anti-CBP antibodies, run on gel and probed with anti-β-catenin antibody. […] A biotinylated version of YH249 (Bio-249) was prepared via the propargyl amide variant. Using a biotin with a linker and a terminal azide residue, we were able to couple the biotin to the YH249 core via a 3+2 cyclization reaction to provide Bio-249. Bio-249 was incubated with lysates from C2Cl2 myoblasts, either in the presence or absence of competitor YH249 for 4 h at 4° C. and then bound to streptavidin agarose beads. After extensive washing the bound proteins were eluted and run out on an […].

mouse bone marrow cells = assay: Colony-forming cell (CFC) assay after 4 h in vitro treatment; type: cell-based
Procedure: Brief (less than 24 hours) treatment of HSC with YH250 or DMSO was conducted before the CFC or CFU-S12 assay. Mouse bone marrow cells were treated with DMSO (solvent control) or YH250 for 4 hours in serum free HSC expansion medium before the cells were recovered for a colony forming assay. 7-8 Days after cell plating in methylcellulose medium (Stemcell Technologies, Methocult GF M3434, Cat#3434), colonies were scored, and the cells from each plate were recovered and counted.
In fact, they also show similar biological functions with respect to HSPC.

[2] = tested on: lethally irradiated animals; assay: Survival after lethal dose whole body radiation; type: in vivo, mouse
Procedure: We next tested if YH250 can rescue animals from lethal dose radiation. […] However, YH250 (2 mg/Kg) administrated 24 hours post radiation rescued 50% of animals (Kaplan-Meier analysis p=0.0002).
With 8.5Gy radiation, all the animals (100%) survived in YH250 treatment group while there are only 30% animals survived in DMSO treatment group (p=0.0016, FIG. 21C). […] In principle, to optimize radiation remediation therapy, it should be advantageous to first (a) symmetrically expand the remaining viable stem cell pool (either HSC or ISC), using a method to enhance symmetric non-differentiative proliferation, i.e., by blocking the p300/catenin interaction thereby enhancing CBP/catenin signaling and (b) subsequently induce the differentiation of the stem cell pool via asymmetric divisions to enhance tissue repair and regeneration as rapidly as possible using a CBP/catenin antagonist. We therefore decided to test sequential administration of the p300/catenin antagonist YH250, followed by subsequent administration of the CBP/catenin antagonist ICG-001. An additional potential therapeutic benefit utilizing a CBP/catenin antagonist would be protection against fibrosis, which is a common chronic complication associated with radiation damage. […] We thus treated mice with either vehicle, YH250 (single 2 mg/Kg s.c., injection at 24 h post irradiation), ICG-001 (single 50 mg/Kg s.c., injection at 24 h post irradiation) or the combination of YH250/ICG-001, with YH250 (2 mg/Kg) given 24 h post irradiation followed by ICG-001 (50 mg/Kg) injection for 5 consecutive days starting at 48 h post-irradiation. After irradiation and the corresponding treatments, no special care was provided. The life-span after irradiation was observed on a daily basis and recorded.

cord blood CD34+ cells = assay: Cord blood CD34+ cell culture 7 days, FACS surface marker analysis; type: cell-based, human; conditions: 7th day
Procedure: A method to analyze expanded cord blood CD34+ cell phenotype using FACS is established. In this study, cord blood cells were cultured in vitro with 4GF and different concentrations of p300/-catenin antagonist such as YH250. Because the limited CD34+ cells in culture system, GFP transgenic mouse bone marrow cells were isolated and added to the cells as carrier cells in FACS analysis. The bright GFP positive carrier cells were gated out and the targeting cord blood cells were further analyzed for their surface marker. FIG. 13A depicts carrier cell only in FACS analysis.
Cord blood CD34+ cells were cultured in medium containing either 4GF or 6GF with different concentration of p300/-catenin antagonist YH250. At 7th day in culture, cells were recovered and mixed with carrier cells from GFP mice bone marrow. Antibodies to human HSC surface protein are added to the cells and human CD45posit cells were gated for FACS analysis. […] In 6GF medium, 10 μM of YH250 also gives more human CD45+CD34+ cells compared with DMSO (73.3% vs 66.2%, Table 5).

LSK150+41+48+ cells = assay: RNA sequencing of progenitor population from treated mice; type: in vivo, mouse; conditions: 2 mg/kg vs DMSO, 16 hours
Procedure: DMSO or YH250 (2 mg/kg) were administrated to female C57/Black mice.

[3] = 4 hours incubation then CFC assay

## COc1cccc(CNC(=O)N2C3CN(Cc4cc(Cl)cc(Cl)c4N(C)C)C(=O)[C@H](Cc4ccc(O)cc4)N3C(=O)CN2C)c1OC (stereo partly drawn) [YH250]
Cord blood cells; in vitro treated cells
  human CD34+ cells in bone marrow vs DMSO treated cells: more human CD34+ cells in bone marrow
Cord blood cells; pre-incubation in vitro 24 hours before BMT
  donor cell engraftment in blood: best engraftment in blood
[1]
  β-catenin in the p300 pull down lane: significantly decreased levels of β-catenin
Mouse bone marrow cells; [3]
  CELL#/plate: 9.5 × 10^5
  CFC#/plate: 29
Mouse bone marrow cells; 4 hours treatment, serum free medium, scored 7-8 days after plating
  CFC colony number vs DMSO: not significantly different
Mouse bone marrow cells; 4 hours treatment, cells recovered from plate
  cell number in each plate vs DMSO: increased cell number in each plate
[2]; 8.5Gy
  body weight vs DMSO: less body weight drop
[2]; 8.5Gy (LD70/60), 2 mg/Kg 24 hours post radiation, DMSO 30%, p=0.0016
  animals survived: 100%
[2]; 9Gy
  body weight: less body weight drop
[2]; 9Gy (LD100/60), 2 mg/Kg 24 hours post radiation, p=0.0002
  animals rescued (survival): 50%
[2]; YH250 2 mg/Kg s.c. 24 h post irradiation, combination followed by ICG-001 50 mg/Kg 5 consecutive days from 48 h
  life-span after irradiation vs control group: significantly extended life-spans
Cord blood CD34+ cells; 4GF (SF6T), 1 μM, DMSO 3.9
  %34 + 38-45RA-33-: 3.5%
Cord blood CD34+ cells; 4GF (SF6T), 1 μM, DMSO 4.5
  %33-45RA-: 5.0%
Cord blood CD34+ cells; 4GF (SF6T), 1 μM, DMSO 12.2
  % CD3+: 16.0%
Cord blood CD34+ cells; 4GF (SF6T), 1 μM, DMSO 64.5
  %34 + 38-: 51.7%
Cord blood CD34+ cells; 4GF (SF6T), 1 μM, DMSO 79.1
  %34+: 64.1%
Cord blood CD34+ cells; 4GF (SF6T), 3 μM
  %33-45RA-: 5.8%
  %34+: 84%
  %34 + 38-: 65.5%
  %34 + 38-45RA-33-: 5.2%
  % CD3+: 9.5%
Cord blood CD34+ cells; 4GF (SF6T), 10 μM
  %33-45RA-: 4.9%
  %34+: 89.1%
  %34 + 38-: 65.3%
  %34 + 38-45RA-33-: 4.5%
  % CD3+: 4.5%
Cord blood CD34+ cells; 6GF (SF6T3G), 1 μM, DMSO 2.3
  %34 + 38-45RA-33-: 4.4%
Cord blood CD34+ cells; 6GF (SF6T3G), 1 μM, DMSO 2.5
  %33-45RA-: 5.8%
Cord blood CD34+ cells; 6GF (SF6T3G), 1 μM, DMSO 22.6
  % CD3+: 20.1%
Cord blood CD34+ cells; 6GF (SF6T3G), 1 μM, DMSO 56.4
  %34 + 38-: 53.9%
Cord blood CD34+ cells; 6GF (SF6T3G), 1 μM, DMSO 66.2
  %34+: 62%
Cord blood CD34+ cells; 6GF (SF6T3G), 3 μM
  %33-45RA-: 5.6%
  %34+: 66.1%
  %34 + 38-: 55.8%
  %34 + 38-45RA-33-: 4.2%
  % CD3+: 18.8%
Cord blood CD34+ cells; 6GF (SF6T3G), 10 μM
  %33-45RA-: 6.1%
  %34+: 73.3%
  %34 + 38-: 57.9%
  %34 + 38-45RA-33-: 4.2%
  % CD3+: 13.8%
LSK150+41+48+ cells
  Fold-Change Car1: −12.1 fold
  Fold-Change Gm26377 (miRNA): −3.19 fold
  Fold-Change Ighm: 2.36 fold
  Fold-Change Ighv11-2: 4.42 fold
  Fold-Change Igkv19-93: 3.12 fold
  Fold-Change Mid1: −2.8 fold
